# From US20140154717A1, “METHOD FOR DETECTING CANCER CELL USING FLUORESCENTLY LABELED L-GLUCOSE DERIVATIVE, AND CANCER CELL-IMAGING AGENT COMPRISING FLUORESCENTLY LABELED L-GLUCOSE DERIVATIVE” (priority 2011, published 2014)
# Entries after “also recorded” stand apart in the source; their conditions may differ.
# Legend:
# tumor cells (C6 glioma) = experiment: In vivo fluorescent imaging using C6 tumor model mice (rat glioma C6 cells transplanted subcutaneously in nude mice); set-up: species or system mouse
# Procedure: C6 cells were prepared according to an ordinary method so that the cell number was 2×10^7 cells/mL.
# C6 cells were seeded on a 10 cm petri dish, allowed to stand still in a CO2 incubator, and cultured at 37° C. The culture medium was exchanged once every two days.
# 1 g/L glucose-containing Dulbecco's modified Eagle's Medium (DMEM) (Nacalai No. 08456-65), to which Fetal Bovine Serum (Equitech-Bio SFBM) was added so that the final concentration was 10% and penicillin-streptomycin (Nacalai No. 26253-84) was added so that the final concentration was 1%, was used.
# 5 to 6-week old athymic nude mice (BALB/cAJcl-nu/nu) were transplanted with 50 μL of a cell suspension adjusted to 2×10^7 cells/mL subcutaneously around the root of right hind paw, under isoflurane anesthesia. The transplanted tumor cells were observed until growing to about 200 to 300 mm^3, and used in vivo fluorescent imaging.
# C6 tumor model mice were allowed to stand still in an in vivo fluorescence imaging apparatus IVIS (registered trademark) Kinetics (Caliper Life sciences) under isoflurane anesthesia and autofluorescence of the mouse skin was measured, and subsequently, 400 nmol (100 μL) of 2-NBDLG or 2-NBDG dissolved in physiological saline was administered from the tail vein over a period of 30 seconds, and measurement of the fluorescence imaging was started again from one minute after starting administration. The in vivo fluorescence imaging was measured at an excitation wavelength of 465 nm using a GFP filter (transmittable fluorescence wavelength: 515-575 nm). The measurement was conducted for 45 minutes, and images were taken every one minute during the initial 20 minute and every 5 minutes from 20 to 45 minutes, obtaining 25 images in total. The accumulated values (fluorescence value) of 2-NBDLG and 2-NBDG in the interested area were obtained by subtracting the autofluorescence images from the 25 images taken after administration of 2-NBDLG or 2-NBDG.
# A vial of 0.5 mg of 2-NBDLG or 2-NBDG was dissolved in 400 μL of physiological saline directly before the experiment, to prepare a solution having a final concentration of 400 nmol/100 μL.
# [1] = tested on: mouse insulinoma cells (MIN6); experiment: Confocal imaging of tumor cell clusters composed of mouse insulinoma cells (MIN6) using 2-NBDLG; type: cell-based; details: 100 μM, perfusion 3 minutes, just after washout; MIN6 cultured 11 days
# Procedure: Culture medium containing MIN6 cells suspended at a proportion of 10×10^4 cells/mL was dispersed by pipetting, and dropped on a glass cover slip, then, allowed to stand still in a 5% CO2 incubator for 20 minutes to cause adhesion to the glass surface, and 3 mL of the culture medium was added, and the cells were cultured. The half quantity of the culture medium was exchanged every two days.
# MIN6 cells (provided by Professor Miyazaki Junichi, Osaka University, and the passage number was six to nine times) were seeded on a 10 cm petri dish, allowed to stand still in a CO2 incubator, and cultured at 37° C. The half quantity of the culture medium was exchanged every two days.
# High glucose-containing Dulbecco's modified Eagle's Medium (DMEM-HG) (SIGMA #D5648) (13.4 g), NaHCO3 (Wako, No. 191-01305) (3.4 g) and 2-Mercaptoethanol (Wako, No. 135-14352) (5 μL) were dissolved in 1 liter of ultra-pure water (Mili Q), and equilibrated with ambient air. Next, pH was adjusted to 7.3 to 7.35 using 1N HCl in a CO2 incubator at 37° C., and sterilized by suction filtration. Directly before use, Hyclone Fetal Bovine Serum (Cat# SH30070.03) was added so as to give a final concentration of 10% and penicillin-streptomycin (Gibco #15140) was added so as to give a final concentration of 0.5%.
# MIN6 cells were prepared with culture medium so that the cell number was 10×10^4 cells/mL.
# The whole quantity of one vial of 0.5 mg 2-NBDLG was dissolved in 14. 6 mL of a HEPES solution for image acquisition, for preparing a 2-NBDLG solution having a final concentration of 100 μM.
# NaCl 131.8 mM, KCl 4.75 mM, KH2PO4 1.19 mM, MgCl2 1.2 mM, CaCl2 1 mM, NaHCO3 5.0 mM, D-Glucose 2.8 mM, HEPES 10 mM (adjusted to pH 7.35 with 1M NaOH). For inhibiting entrance and elimination of fluorescently labeled glucose via a gap junction/hemichannel, 0.1 mM Carbenoxolone (SIGMA #C4790) was added. The HEPES solution for image acquisition was used as a solution for preparing a 2-NBDLG solution and as a solution for preparing a 2-NBDLG/2-TRLG solution. […]
smiles,measurement,setting,value
"O=[N+]([O-])c1ccc(NC2C(O)OC(CO)[C@H](O)C2O)c2nonc12 (stereo partly drawn) [2-NBDLG, 2-[N-(7-Nitrobenz-2-oxa-1,3-diazol-4-yl)amino]-2-deoxy-L-glucose]","fluorescence values at tumor-transplanted part (Tumor) versus normal tissue (BG), FIG. 3","tumor cells (C6 glioma); 400 nmol i.v., temporal change over 45 minutes, same result in 6 examples","fluorescence values at the tumor-transplanted part (blue rhombus, Tumor) are consistently larger than at normal tissue"
same,time from which accumulations at the tumor cell-transplanted part were recognized,tumor cells (C6 glioma); 400 nmol/100 μL from the tail vein,around 5 minutes after administration
same,accumulation at the tumor-transplanted part,"tumor cells (C6 glioma); 400 nmol/100 μL from the tail vein over 30 seconds, non-fasted nude mice, fluorescence images every one minute",intense accumulations
same,contrast between tumor-transplanted part and normal tissue (adipocyte-rich dorsal part near neck),"tumor cells (C6 glioma); 400 nmol/100 μL from the tail vein, non-fasted mice",excellent contrast; also recorded: high contrast
same,uptake/accumulation in normal tissue,"tumor cells (C6 glioma); 400 nmol/100 μL from the tail vein, normal tissue (fat tissue on the back, between back bones, muscle)",scarcely taken up
same,"uptake into cell cluster (a), developed cluster with abnormal nuclei",[1],intense uptake
same,"uptake into cell cluster (b), normal nucleus morphology",[1],only a slight uptake
same,"uptake into cell cluster (c), two-dimensionally accumulated planar cluster",[1],almost no increase in the fluorescence intensity
